The target of series [1] is Voltage-gated inwardly rectifying potassium channel KCNH2 (Homo sapiens, UniProt Q12809).
Description: Displacement of [3H]dofetilide from hERG expressed in HEK293 cell membrane
For the next series, the target named is hERG (KCNH2) (Homo sapiens, UniProt Q12809). As to the kind of experiment: Inhibition of hERG-mediated tail current expressed in HEK293 cells at 30 uM by patch clamp method. The settings on record: HEK293 cells that express hERG. In kind it is toxicity, cell-based. (hERG is a cardiac potassium channel; its block is linked to QT prolongation.)
Sequence of hERG (KCNH2) (Q12809 whole entry): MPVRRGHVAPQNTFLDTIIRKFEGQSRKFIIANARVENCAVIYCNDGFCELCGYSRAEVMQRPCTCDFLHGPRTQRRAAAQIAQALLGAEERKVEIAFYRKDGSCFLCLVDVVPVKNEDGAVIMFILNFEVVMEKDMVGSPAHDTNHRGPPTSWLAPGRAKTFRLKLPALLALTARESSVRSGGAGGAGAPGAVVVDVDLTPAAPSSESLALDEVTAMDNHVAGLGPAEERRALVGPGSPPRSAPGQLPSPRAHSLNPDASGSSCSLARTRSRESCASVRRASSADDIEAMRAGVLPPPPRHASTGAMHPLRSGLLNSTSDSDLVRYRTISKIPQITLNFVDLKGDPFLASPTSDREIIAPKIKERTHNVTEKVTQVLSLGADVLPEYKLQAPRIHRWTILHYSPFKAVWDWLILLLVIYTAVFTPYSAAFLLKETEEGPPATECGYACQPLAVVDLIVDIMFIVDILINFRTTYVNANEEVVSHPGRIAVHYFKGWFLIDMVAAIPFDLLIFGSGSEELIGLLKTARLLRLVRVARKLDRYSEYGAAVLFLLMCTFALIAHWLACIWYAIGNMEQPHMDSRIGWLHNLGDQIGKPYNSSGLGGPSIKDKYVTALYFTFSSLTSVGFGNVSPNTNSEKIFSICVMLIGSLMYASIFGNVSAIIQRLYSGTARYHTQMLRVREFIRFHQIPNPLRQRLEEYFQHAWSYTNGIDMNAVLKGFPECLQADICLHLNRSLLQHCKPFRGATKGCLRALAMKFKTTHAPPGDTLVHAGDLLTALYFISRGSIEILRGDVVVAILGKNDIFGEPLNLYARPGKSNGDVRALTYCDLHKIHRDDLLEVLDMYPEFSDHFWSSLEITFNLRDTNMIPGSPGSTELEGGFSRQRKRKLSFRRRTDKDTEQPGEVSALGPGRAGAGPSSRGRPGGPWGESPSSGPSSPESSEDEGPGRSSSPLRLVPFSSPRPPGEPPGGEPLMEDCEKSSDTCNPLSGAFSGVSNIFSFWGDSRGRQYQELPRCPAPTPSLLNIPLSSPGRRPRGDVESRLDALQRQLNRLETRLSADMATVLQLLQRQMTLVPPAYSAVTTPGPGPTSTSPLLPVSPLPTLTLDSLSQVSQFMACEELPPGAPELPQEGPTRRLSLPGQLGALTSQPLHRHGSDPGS
The nature of series [2]: AUC (0 to infinity) in DIO mouse plasma at 10 mg/kg, po. It counts as ADME, organism-based. Also noted: time infinity, dose 10 mg/kg, route oral.
A short description of series [3]: Cmax in DIO mouse plasma at 10 mg/kg, po. It counts as ADME, organism-based. On the set-up: dose 10 mg/kg, route oral.
Series [4] is described as follows: Drug level in DIO mouse plasma at 10 mg/kg, po after 12 hrs. In kind it is ADME, organism-based. On the set-up: dose 10 mg/kg, route oral.
Series [5] is described as follows: Half life in DIO mouse plasma at 10 mg/kg, po. On the set-up: dose 10 mg/kg, route oral. It counts as ADME, organism-based.
The next series relates to Mus musculus. The series can be described thus: AUC (0 to infinity) in DIO mouse brain at 10 mg/kg, po. In kind it is ADME, organism-based. On the set-up: time infinity, dose 10 mg/kg, route oral. Particulars: in vivo.
The nature of series [6]: Cmax in DIO mouse brain at 10 mg/kg, po. It counts as ADME, organism-based. On the set-up: dose 10 mg/kg, route oral.
Series [7] is described as follows: Drug level in DIO mouse brain at 10 mg/kg, po after 12 hrs. Particulars: read-out: Drug uptake. On the set-up: dose 10 mg/kg, route oral. In kind it is ADME, organism-based.
Series [8] in a line: Half life in DIO mouse brain at 10 mg/kg, po. On the set-up: dose 10 mg/kg, route oral. In kind it is ADME, organism-based.

Each structure is given as a SMILES string.

Sequence of Voltage-gated inwardly rectifying potassium channel KCNH2 (Q12809 whole entry): as above

One may read the IC50 as the midpoint of a concentration-inhibition curve. For the compound `O=C(NCCN1CCCC1)c1ccc(CN2CCC(NC(=O)c3cc(=O)c4ccc(F)cc4o3)CC2)c(Cl)c1`, inhibition in [1] was half-maximal at 11 µM (IC50).

For `COc1cc(C(=O)NCCN2CCCC2)ccc1CN1CCC(NC(=O)c2cc(=O)c3ccc(F)cc3o2)CC1`, the IC50 in series [1] was 6.6 µM.

Turning to `O=C(CCN1CCCCC1)Nc1ccc(CN2CCC(NC(=O)c3cc(=O)c4ccc(F)cc4o3)CC2)cc1F`, in [1], the IC50 amounted to 9.18 µM.

`COC(C)(C)CCOc1ccc(CN2CCC(NC(=O)c3cc(=O)c4ccc(F)cc4o3)CC2)cc1` gave an IC50 in series [1] of 4.3 µM.

For the compound `O=C(NC1CCN(Cc2ccc(OCCCN3C(=O)CSC3=O)c(F)c2)CC1)c1cc(=O)c2ccc(F)cc2o1`, in series [1], the concentration for half-maximal inhibition (IC50) came to 8.5 µM.

For orientation: inhibition means how much of the control response was suppressed. The low end stands for a weak effect, the high end for a strong effect. The term AUC(0-inf) denotes the area under the concentration-time curve extrapolated to infinity. Low values mean less exposure, high ones more exposure. As a reminder, the Cmax is the peak of the concentration-time curve. For orientation: half-life means the time needed for the level to fall by half in the phase considered. Compound `O=C(NC1CCN(Cc2ccc(C(=O)NCCN3CCCC3)c(F)c2)CC1)c1cc(=O)c2ccc(F)cc2o1` yielded an inhibition at 30 µM at hERG (KCNH2) of 21%. Also, in series [2], the AUC(0-inf) was found to be 3150 ng·h/mL. In addition, the results for the Cmax in series [3] and in series [6] were 598 ng/mL and 185 ng/g, respectively. Besides, the concentration at 12 h in [4] is 38 ng/mL; in [7], 75 ng/g. Moreover, the half-life in series [5] is 120 min; in series [8], 480 min. The AUC with Mus musculus is 1378 ng·h/g. Besides, the IC50 in [1] was more than 100 µM.

The values are drawn from ChEMBL document CHEMBL1139188, “Identification of diamino chromone-2-carboxamides as MCHr1 antagonists with minimal hERG channel activity” (Bioorg Med Chem Lett, 2007).
